The record followed here is US10059713B2 (Takeda Pharmaceutical Company Limited, priority 2014, dated 2018).

The structures appear in SMILES notation.

The target of this experiment is human GPR43 (Homo sapiens (Human), UniProt O15552). Nature of the experiment: Ca-Flux functional assay: determination of agonist/positive allosteric modulator (PAM) activity. Format: cell-based. The note with it: CHO-K1 Gα16 cells stably expressing human GPR43; compound added with EC20 sodium acetate; intracellular Ca2+ by FLIPR; does not distinguish agonist from PAM. The procedure, abridged: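 Agonist or PAM activity read as intracellular Ca2+ rise by FLIPR after adding compound plus EC20 acetate, acetate EC20 set from a prior curve. Cells: CHO-K1 Gα16 with stable human GPR43. EC50 from ten-point half-log curves starting 10 μM.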
Sequence of human GPR43 (O15552 whole entry): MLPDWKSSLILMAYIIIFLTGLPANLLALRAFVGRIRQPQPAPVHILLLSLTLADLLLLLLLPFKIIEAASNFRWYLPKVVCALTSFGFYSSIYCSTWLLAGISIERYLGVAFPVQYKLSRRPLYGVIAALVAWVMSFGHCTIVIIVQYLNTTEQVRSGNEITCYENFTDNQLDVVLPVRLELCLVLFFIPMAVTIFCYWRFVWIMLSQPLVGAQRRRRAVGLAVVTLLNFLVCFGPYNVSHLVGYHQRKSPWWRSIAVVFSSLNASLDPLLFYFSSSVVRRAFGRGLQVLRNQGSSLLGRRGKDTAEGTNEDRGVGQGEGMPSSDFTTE
On to `COc1cccc(S(=O)(=O)c2c(N)[nH]c3c(N4CCOC(C)C4)ncnc23)c1` (stereo not shown) [Example 154, 7-(3-methoxybenzenesulfonyl)-4-(2-methylmorpholin-4-yl)-5H-pyrrolo[3,2-d]pyrimidin-6-amine], for which the EC50 came to 47 nM.
Next, `Cc1nc(OC(C)C(F)(F)F)c2[nH]c(N)c(S(=O)(=O)c3ccccc3F)c2n1` (stereo not shown) [Example 274, 7-(2-fluorobenzenesulfonyl)-2-methyl-4-[(1,1,1-trifluoropropan-2-yl)oxy]-5H-pyrrolo[3,2-d]pyrimidin-6-amine]: 8 nM; `Cc1csc(COc2ncnc3c(S(=O)(=O)c4ccccc4)c(N)[nH]c23)n1` [Example 161, 7-(benzenesulfonyl)-4-[(4-methyl-1,3-thiazol-2-yl)methoxy]-5H-pyrrolo[3,2-d]pyrimidin-6-amine]: 1400 nM.
For `Nc1[nH]c2c(C3=CCCCC3)ncnc2c1S(=O)(=O)c1ccc(F)cc1` [Example 26, 4-(cyclohex-1-en-1-yl)-7-[(4-fluorobenzene)sulfonyl]-5H-pyrrolo[3,2-d]pyrimidin-6-amine], the EC50 came to 46 nM. This EC50 is about 30-fold lower than that of the molecule before.
The molecule `Nc1[nH]c2c(C3CCC(F)(F)CC3)ncnc2c1S(=O)(=O)c1ccccc1` [Example 155, 7-(benzenesulfonyl)-4-(4,4-difluorocyclohexyl)-5H-pyrrolo[3,2-d]pyrimidin-6-amine] returned an EC50 of 330 nM.
As for `Cc1nc(OC2CCC(F)(F)CC2)c2[nH]c(N)c(S(=O)(=O)c3ccccc3)c2n1` [Example 254, 7-(benzenesulfonyl)-4-[(4,4-difluorocyclohexyl)oxy]-2-methyl-5H-pyrrolo[3,2-d]pyrimidin-6-amine], the EC50 turned out to be 29 nM. Against the preceding molecule, the EC50 is about 11-fold lower.
Next, `Cc1nc(N2CCO[C@H](C(F)(F)F)C2)c2[nH]c(N)c(S(=O)(=O)c3ccc(Cl)cc3F)c2n1` [Example 284, 7-(4-chloro-2-fluorobenzenesulfonyl)-2-methyl-4-[(2S)-2-(trifluoromethyl)morpholin-4-yl]-5H-pyrrolo[3,2-d]pyrimidin-6-amine]: 2 nM.
`Nc1[nH]c2c(C3CCCCC3)cncc2c1S(=O)(=O)c1ccccc1` [Example 32, 3-(benzenesulfonyl)-7-cyclohexyl-1H-pyrrolo[3,2-c]pyridin-2-amine] displayed an EC50 of 37 nM. This EC50 lies about 18-fold higher than the previous one.
The result for `CCc1nc(C2=CCCCC2)c2[nH]c(N)c(S(=O)(=O)c3ccccc3)c2n1` [Example 41, 7-(benzenesulfonyl)-4-(cyclohex-1-en-1-yl)-2-ethyl-5H-pyrrolo[3,2-d]pyrimidin-6-amine] reads 37 nM; that for `CC[C@H](C)Oc1nc(C)nc2c(S(=O)(=O)c3ccccc3)c(N)[nH]c12` [Example 246, 7-(benzenesulfonyl)-4-[(2S)-butan-2-yloxy]-2-methyl-5H-pyrrolo[3,2-d]pyrimidin-6-amine], 64 nM; that for `Cc1nc(N2CCC(F)(F)CC2)c2[nH]c(N)c(S(=O)(=O)c3ccccc3)c2n1` [Example 142, 7-(benzenesulfonyl)-4-(4,4-difluoropiperidin-1-yl)-2-methyl-5H-pyrrolo[3,2-d]pyrimidin-6-amine], 20 nM.
The result for `Nc1[nH]c2c(C3=CCCCC3)ncnc2c1S(=O)(=O)c1cccc(F)c1` [Example 37, 4-(cyclohex-1-en-1-yl)-7-[(3-fluorobenzene)sulfonyl]-5H-pyrrolo[3,2-d]pyrimidin-6-amine] reads 80 nM.
Next, `Nc1[nH]c2c(N3CCC(OCC4CC4)CC3)ncnc2c1S(=O)(=O)c1ccccc1` [Example 116, 7-(benzenesulfonyl)-4-[4-(cyclopropylmethoxy)piperidin-1-yl]-5H-pyrrolo[3,2-d]pyrimidin-6-amine]: 80 nM; `Cc1nc(N2CCO[C@H](C(F)(F)F)C2)c2[nH]c(N)c(S(=O)(=O)c3cc(F)ccc3F)c2n1` [Example 292]: 3 nM; `CN(CC1CCCCO1)c1ncnc2c(S(=O)(=O)c3ccccc3)c(N)[nH]c12` (stereo not shown) [Example 91, 7-(benzenesulfonyl)-4-N-methyl-4-N-(oxan-2-ylmethyl)-5H-pyrrolo[3,2-d]pyrimidine diamine]: 1400 nM.
Take `Nc1[nH]c2c(-n3cccn3)ncnc2c1S(=O)(=O)c1ccccc1` [Example 128, 7-(benzenesulfonyl)-4-(1H-pyrazol-1-yl)-5H-pyrrolo[3,2-d]pyrimidin-6-amine]: a half-maximal response (EC50) required 797 nM.
Next, `Nc1[nH]c2c(N3CCC(F)(F)CC3)ncnc2c1S(=O)(=O)c1ccccc1F` [Example 74, 4-(4,4-difluoropiperidin-1-yl)-7-(2-fluorobenzenesulfonyl)-5H-pyrrolo[3,2-d]pyrimidin-6-amine]: 9 nM; `CCN(Cc1ccco1)c1ncnc2c(S(=O)(=O)c3ccccc3)c(N)[nH]c12` [Example 62, 7-(benzenesulfonyl)-4-N-ethyl-4-N-(furan-2-ylmethyl)-5H-pyrrolo[3,2-d]pyrimidine-4,6-diamine]: 91 nM.
`Cc1nc(N2CCOC(C)(C(F)(F)F)C2)c2[nH]c(N)c(S(=O)(=O)c3ccccc3F)c2n1` (stereo not shown) [Example 303, 7-(2-fluorobenzenesulfonyl)-2-methyl-4-[2-methyl-2-(trifluoromethyl)morpholin-4-yl]-5H-pyrrolo[3,2-d]pyrimidin-6-amine]: a half-maximal effect (EC50) was put at 3 nM. Compared with the last molecule, the EC50 is about 30-fold lower.
Next, `Nc1[nH]c2c(N3CCC(F)(F)CC3)ncnc2c1S(=O)(=O)c1ccccc1` [Example 24, 7-(benzenesulfonyl)-4-(4,4-difluoropiperidin-1-yl)-5H-pyrrolo[3,2-d]pyrimidin-6-amine]: 19 nM; `Cc1nc(N2CCO[C@@H](C(F)(F)F)C2)c2[nH]c(N)c(S(=O)(=O)c3ccccc3F)c2n1` [Example 289, 7-(2-fluorobenzenesulfonyl)-2-methyl-4-[(2R)-2-(trifluoromethyl)morpholin-4-yl]-5H-pyrrolo[3,2-d]pyrimidin-6-amine]: 1 nM; `CC(Oc1ncnc2c(S(=O)(=O)c3ccccc3)c(N)[nH]c12)C1CCCC1` (stereo not shown) [Example 212, 7-(benzenesulfonyl)-4-(1-cyclopentylethoxy)-5H-pyrrolo[3,2-d]pyrimidin-6-amine]: 11 nM.
Next, `CC1CN(c2ncnc3c(S(=O)(=O)c4cc(F)cc(F)c4)c(N)[nH]c23)CCO1` (stereo not shown) [Example 147, 7-(3,5-difluorobenzenesulfonyl)-4-(2-methylmorpholin-4-yl)-5H-pyrrolo[3,2-d]pyrimidin-6-amine]: 88 nM; `Nc1[nH]c2cc(C3=CCCCC3)cnc2c1S(=O)(=O)c1ccccc1` [Example 25, 3-(benzenesulfonyl)-6-(cyclohex-1-en-1-yl)-1H-pyrrolo[3,2-b]pyridin-2-amine]: 288 nM; `Cc1nc(N2CCO[C@@H](C(F)(F)F)C2)c2[nH]c(N)c(S(=O)(=O)c3cc(F)ccc3F)c2n1` [Example 291]: 3 nM.
The result for `Cc1nc(N2CCOC3(CCCC3)C2)c2[nH]c(N)c(S(=O)(=O)c3ccccc3F)c2n1` [Example 177, 7-(2-fluorobenzenesulfonyl)-2-methyl-4-{6-oxa-9-azaspiro[4.5]decan-9-yl}-5H-pyrrolo[3,2-d]pyrimidin-6-amine] reads 6 nM; that for `Nc1[nH]c2c(-c3ccccc3)ncnc2c1S(=O)(=O)c1ccccc1` [Example 9, 7-(benzenesulfonyl)-4-phenyl-5H-pyrrolo[3,2-d]pyrimidin-6-amine], 48 nM.
For the molecule `Cc1nc(N2C[C@@H](C)O[C@H](C)C2)c2[nH]c(N)c(S(=O)(=O)c3cccc(F)c3)c2n1` [Example 200, 4-[(2R,6R)-2,6-dimethylmorpholin-4-yl]-7-(3-fluorobenzenesulfonyl)-2-methyl-5H-pyrrolo[3,2-d]pyrimidin-6-amine], the EC50 is 25 nM.
The result for `Nc1[nH]c2c(N3CCC(F)CC3)ncnc2c1S(=O)(=O)c1ccccc1` [Example 46, 7-(benzenesulfonyl)-4-(4-fluoropiperidin-1-yl)-5H-pyrrolo[3,2-d]pyrimidin-6-amine] reads 153 nM.
The result for `Cc1nc(OC(C)C2CCC2)c2[nH]c(N)c(S(=O)(=O)c3ccccc3)c2n1` (stereo not shown) [Example 256, 7-(benzenesulfonyl)-4-(1-cyclobutylethoxy)-2-methyl-5H-pyrrolo[3,2-d]pyrimidin-6-amine] reads 18 nM; that for `C=C(C)c1ncnc2c(S(=O)(=O)c3ccc(OC)cc3)c(N)[nH]c12` [Example 71, 7-(4-methoxybenzenesulfonyl)-4-(prop-1-en-2-yl)-5H-pyrrolo[3,2-d]pyrimidin-6-amine], 553 nM.
For `COc1ccc(S(=O)(=O)c2c(N)[nH]c3c(N4CCCC(C)C4)ncnc23)cc1` (stereo not shown) [Example 106, 7-(4-methoxybenzenesulfonyl)-4-(3-methylpiperidin-1-yl)-5H-pyrrolo[3,2-d]pyrimidin-6-amine], the EC50 was determined as 15 nM.
The result for `Nc1[nH]c2c(N3CCOC4CCCC43)ncnc2c1S(=O)(=O)c1ccccc1` (stereo not shown) [Example 215, 7-(benzenesulfonyl)-4-{octahydrocyclopenta[b]morpholin-4-yl}-5H-pyrrolo[3,2-d]pyrimidin-6-amine] reads 61 nM; that for `CC1CN(c2nc(N(C)C)nc3c(S(=O)(=O)c4ccccc4F)c(N)[nH]c23)CCO1` (stereo not shown) [Example 270, 7-(2-fluorobenzenesulfonyl)-2-N,2-N-dimethyl-4-(2-methylmorpholin-4-yl)-5H-pyrrolo[3,2-d]pyrimidine-2,6-diamine], 17 nM; that for `Cc1nc(OC2CCC2)c2[nH]c(N)c(S(=O)(=O)c3ccccc3F)c2n1` [Example 260, 4-cyclobutoxy-7-(2-fluorobenzenesulfonyl)-2-methyl-5H-pyrrolo[3,2-d]pyrimidin-6-amine], 10 nM.
As for `CN(CC1OCCO1)c1ncnc2c(S(=O)(=O)c3ccccc3)c(N)[nH]c12` [Example 93, 7-(benzenesulfonyl)-4-N-(1,3-dioxolan-2-ylmethyl)-4-N-methyl-5H-pyrrolo[3,2-d]pyrimidine-4,6-diamine], it took 9510 nM to reach a half-maximal effect (EC50).
`COC1CCN(c2ncnc3c(S(=O)(=O)c4ccccc4)c(N)[nH]c23)C1` (stereo not shown) [Example 117, 7-(benzenesulfonyl)-4-(3-methoxypyrrolidin-1-yl)-5H-pyrrolo[3,2-d]pyrimidin-6-amine] came in with an EC50 of 3320 nM.

The term EC50 denotes the concentration needed to bring the measured effect to its halfway point.
